Assay results taken from ChEMBL document CHEMBL2074381, “Pharmacokinetic and prognostic significance of intestinal MDR1 expression in recipients of living-donor liver transplantation” (Clin Pharmacol Ther, 2001).

Target: ATP-dependent translocase ABCB1 (Homo sapiens, UniProt P08183)
Test: TP_TRANSPORTER: mRNA expression level of MDR1 was inversely related to the concentration/dose ratio in vivo, recipients of living-donor liver transplantation
Assay type: functional, organism-based

Sequence of ATP-dependent translocase ABCB1 (P08183 whole entry): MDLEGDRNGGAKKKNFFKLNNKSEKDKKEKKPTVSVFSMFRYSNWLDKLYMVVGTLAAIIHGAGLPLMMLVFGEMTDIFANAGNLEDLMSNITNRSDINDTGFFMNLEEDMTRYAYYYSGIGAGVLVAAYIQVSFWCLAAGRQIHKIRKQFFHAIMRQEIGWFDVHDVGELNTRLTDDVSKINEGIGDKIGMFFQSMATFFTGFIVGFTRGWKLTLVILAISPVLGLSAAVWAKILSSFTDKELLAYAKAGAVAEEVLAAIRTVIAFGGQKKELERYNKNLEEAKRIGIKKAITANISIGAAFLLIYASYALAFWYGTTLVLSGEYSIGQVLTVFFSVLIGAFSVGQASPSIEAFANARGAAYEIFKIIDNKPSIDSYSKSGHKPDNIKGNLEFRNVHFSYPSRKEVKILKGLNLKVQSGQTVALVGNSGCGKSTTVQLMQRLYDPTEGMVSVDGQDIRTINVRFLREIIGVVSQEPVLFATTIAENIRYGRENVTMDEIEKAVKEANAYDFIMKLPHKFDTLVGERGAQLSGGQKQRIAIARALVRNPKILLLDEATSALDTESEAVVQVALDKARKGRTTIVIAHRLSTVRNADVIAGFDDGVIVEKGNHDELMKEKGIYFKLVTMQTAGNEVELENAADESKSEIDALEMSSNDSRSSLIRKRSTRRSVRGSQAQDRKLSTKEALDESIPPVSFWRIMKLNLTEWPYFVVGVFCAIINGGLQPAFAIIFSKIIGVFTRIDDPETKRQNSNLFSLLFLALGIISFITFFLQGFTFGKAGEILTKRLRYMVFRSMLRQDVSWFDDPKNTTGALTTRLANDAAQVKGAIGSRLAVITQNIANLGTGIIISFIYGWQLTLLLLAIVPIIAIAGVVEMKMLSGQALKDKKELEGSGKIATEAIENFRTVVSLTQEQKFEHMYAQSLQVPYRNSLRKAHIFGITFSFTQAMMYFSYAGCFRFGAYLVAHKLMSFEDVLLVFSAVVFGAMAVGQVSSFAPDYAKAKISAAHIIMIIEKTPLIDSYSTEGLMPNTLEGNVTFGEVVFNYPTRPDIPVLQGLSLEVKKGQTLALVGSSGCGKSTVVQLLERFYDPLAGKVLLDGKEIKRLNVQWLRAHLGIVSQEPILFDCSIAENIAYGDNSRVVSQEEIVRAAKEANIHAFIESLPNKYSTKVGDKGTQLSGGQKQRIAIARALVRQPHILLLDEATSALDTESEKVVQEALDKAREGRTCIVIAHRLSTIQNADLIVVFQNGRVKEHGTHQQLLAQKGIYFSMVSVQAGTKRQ

Activity: substrate [+]
Structure (SMILES): C=CC[C@@H]1/C=C(\C)C[C@H](C)C[C@H](OC)[C@H]2O[C@@](O)(C(=O)C(=O)N3CCCC[C@H]3C(=O)O[C@H](/C(C)=C/[C@@H]3CC[C@@H](O)[C@H](OC)C3)[C@H](C)[C@@H](O)CC1=O)[C@H](C)C[C@@H]2OC [TACROLIMUS ANHYDROUS]
